In PubChem BioAssay AID248 (DTP/NCI, 2004):
Where “and” joins values, the source holds several entries; their conditions need not be identical. Equal values may be shown once. Toxic doses and inconclusive results are not listed. Peptide text beside a SMILES is read from it. * marks the point of attachment. Cbz = O=C(OCc1ccccc1)*

Tested on: L1210 leukemia ip in BDF1 mice, survival T/C
Assay: NCI In Vivo Anticancer Drug Screen. Data for tumor model L1210 Leukemia (intraperitoneal) in B6D2F1 (BDF1) mice
Conditions: endpoint: mean survival time, higher = longer survival
In short: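 Transplanted-tumor mice were given test agent; controls received vehicle only. Survival readings from the two groups were divided (treated over control).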

[1] = dose: 50.0 mg/kg/injection, schedule: Q01DX001 (ip), vehicle: saline
[2] = dose: 100.0 mg/kg/injection, schedule: Q01DX001 (ip), vehicle: saline
[3] = dose: 100.0 mg/kg/injection, schedule: Q04DX003 (ip), vehicle: saline with Tween-80
[4] = dose: 200.0 mg/kg/injection, schedule: Q04DX003 (ip), vehicle: Klucel (hydroxypropylcellulose) (HPC)
[5] = dose: 400.0 mg/kg/injection, schedule: Q04DX003 (ip), vehicle: Klucel (hydroxypropylcellulose) (HPC)
[6] = dose: 100.0 mg/kg/injection, schedule: Q01DX001 (ip), vehicle: carboxymethylcellulose (CMC)
[7] = dose: 200.0 mg/kg/injection, schedule: Q01DX001 (ip), vehicle: carboxymethylcellulose (CMC)
[8] = dose: 400.0 mg/kg/injection, schedule: Q01DX001 (ip), vehicle: carboxymethylcellulose (CMC)
[9] = dose: 100.0 mg/kg/injection, schedule: Q01DX009 (ip), vehicle: Klucel (hydroxypropylcellulose) (HPC)
[10] = dose: 100.0 mg/kg/injection, schedule: Q04DX003 (ip), vehicle: Klucel (hydroxypropylcellulose) (HPC)
[11] = dose: 200.0 mg/kg/injection, schedule: Q01DX009 (ip), vehicle: Klucel (hydroxypropylcellulose) (HPC)
[12] = dose: 100.0 mg/kg/injection, schedule: Q04DX002 (ip), vehicle: Klucel (hydroxypropylcellulose) (HPC)
[13] = dose: 200.0 mg/kg/injection, schedule: Q04DX002 (ip), vehicle: Klucel (hydroxypropylcellulose) (HPC)
[14] = dose: 100.0 mg/kg/injection, schedule: Q04DX003 (ip), vehicle: saline

## O=c1c(CCO)c(C2CC2)n2n1CCCC2
dose: 9.38 mg/kg/injection, schedule: Q01DX001 (ip), vehicle: other
  T/C: 94 % of control
dose: 18.75 mg/kg/injection, schedule: Q01DX001 (ip), vehicle: other
  T/C: 103 % of control

## CC1(C)C2CCC3C(C#N)C(CCC#N)C=CC3C21 (configuration not stated)
dose: 100.0 mg/kg/injection, schedule: Q04DX003 (sc), vehicle: olive oil, sesame oil, peanut oil
  T/C: 98 % of control
dose: 200.0 mg/kg/injection, schedule: Q04DX003 (sc), vehicle: olive oil, sesame oil, peanut oil
  T/C: 97 % of control
dose: 400.0 mg/kg/injection, schedule: Q04DX003 (sc), vehicle: olive oil, sesame oil, peanut oil
  T/C: 101 % of control

## Fc1cc(F)c(F)c(Nc2c(F)c(F)c(Br)c(F)c2F)c1F
dose: 25.6 mg/kg/injection, schedule: Q04DX002 (ip), vehicle: saline with Tween-80
  T/C: 92 % of control
dose: 64.0 mg/kg/injection, schedule: Q04DX002 (ip), vehicle: saline with Tween-80
  T/C: 103 % of control
dose: 160.0 mg/kg/injection, schedule: Q04DX002 (ip), vehicle: saline with Tween-80
  T/C: 92 % of control
dose: 400.0 mg/kg/injection, schedule: Q04DX002 (ip), vehicle: saline with Tween-80
  T/C: 95 % of control

## CCOC(=O)N1N=C([P+](c2ccccc2)(c2ccccc2)c2ccccc2)CC1(c1ccccc1)c1ccccc1
dose: 25.0 mg/kg/injection, schedule: Q01DX001 (ip), vehicle: saline
  T/C: 98 % of control
[1]
  T/C: 104 % of control
[2]
  T/C: 104 % of control

## OC(CC(CC(O)(C(F)(F)F)C(F)(F)F)=NNc1ccccc1)(C(F)(F)F)C(F)(F)F
dose: 25.0 mg/kg/injection, schedule: Q04DX003 (ip), vehicle: saline with Tween-80
  T/C: 101 % of control
dose: 50.0 mg/kg/injection, schedule: Q04DX003 (ip), vehicle: saline with Tween-80
  T/C: 101 % of control
[3]
  T/C: 93 % of control and 90 % of control

## O=S(=O)(Cc1cccc(C(F)(F)F)c1)c1ccccc1-n1cccc1
[4]
  T/C: 90 % of control
[5]
  T/C: 98 % of control

## CNC(=O)Oc1ccccc1-c1ccccc1
[6]
  T/C: 100 % of control
[7]
  T/C: 100 % of control
[8]
  T/C: 96 % of control

## Cc1cc(C(C)C)cc(C(C)C)c1
[9]
  T/C: 96 % of control
[10]
  T/C: 94 % of control
[11]
  T/C: 95 % of control
[4]
  T/C: 102 % of control
[5]
  T/C: 94 % of control

## CCCCCCCCCCCCCCCCCCNC(=S)N/N=C/c1ccccc1[N+](=O)[O-]
dose: 111.0 mg/kg/injection, schedule: Q01DX Z (ip), vehicle: methylcellulose (MC)
  T/C: 90 % of control
dose: 166.0 mg/kg/injection, schedule: Q01DX Z (ip), vehicle: methylcellulose (MC)
  T/C: 86 % of control

## COC1CCCCC1Br (configuration not stated)
[9]
  T/C: 104 % of control
[11]
  T/C: 98 % of control
dose: 400.0 mg/kg/injection, schedule: Q01DX009 (ip), vehicle: Klucel (hydroxypropylcellulose) (HPC)
  T/C: 98 % of control

## CCN(CC)N=Nc1ccccc1-c1nc(N)c2ccccc2n1
[10]
  T/C: 95 % of control
[4]
  T/C: 98 % of control

## CCOC(=O)CCC(NC(=O)C(CCC(=O)O)NC(=O)OCc1ccccc1)C(=O)OCC (stereo not drawn) (Cbz-Glu-Glu(OEt)-OEt; configuration not given here)
[10]
  T/C: 94 % of control
[4]
  T/C: 101 % of control
[5]
  T/C: 96 % of control

## CC/C=C(\C)C1(CCC)C(N)=NC(=O)N=C1N
dose: 75.0 mg/kg/injection, schedule: Q01DX001 (ip), vehicle: carboxymethylcellulose (CMC)
  T/C: 93 % of control
dose: 150.0 mg/kg/injection, schedule: Q01DX001 (ip), vehicle: carboxymethylcellulose (CMC)
  T/C: 91 % of control

## O=C(N/N=C\c1ccc(N(CCCl)CCCl)cc1[N+](=O)[O-])c1cccnc1
[1]
  T/C: 94 % of control
[2]
  T/C: 113 % of control
dose: 200.0 mg/kg/injection, schedule: Q01DX001 (ip), vehicle: saline
  T/C: 92 % of control

## O=C(CCl)Nc1ccccc1
[12]
  T/C: 89 % of control
[13]
  T/C: 92 % of control

## CCSc1ncnc2nc[nH]c12
dose: 75.0 mg/kg/injection, schedule: Q01DX001 (ip), vehicle: acetone
  T/C: 105 % of control
dose: 150.0 mg/kg/injection, schedule: Q01DX001 (ip), vehicle: acetone
  T/C: 105 % of control
dose: 300.0 mg/kg/injection, schedule: Q01DX001 (ip), vehicle: acetone
  T/C: 105 % of control

## CCOC(=O)c1ccc2c3c([nH]c2c1C)-c1ccccc1CC3
dose: 50.0 mg/kg/injection, schedule: Q01DX001 (ip), vehicle: carboxymethylcellulose (CMC)
  T/C: 95 % of control
[6]
  T/C: 97 % of control
[7]
  T/C: 106 % of control
[8]
  T/C: 103 % of control

## CC1=C2C(=C[C@@](C)(CO)[C@@H]2O)C(=O)[C@](C)(O)C12CC2
dose: 75.0 micrograms/kg/injection, schedule: Q01DX Z (ip), vehicle: saline
  T/C: 103 % of control
dose: 150.0 micrograms/kg/injection, schedule: Q01DX Z (ip), vehicle: saline
  T/C: 117 % of control
dose: 300.0 micrograms/kg/injection, schedule: Q01DX Z (ip), vehicle: saline
  T/C: 117 % of control
dose: 600.0 micrograms/kg/injection, schedule: Q01DX Z (ip), vehicle: saline
  T/C: 100 % of control

## O=C(OC1COC(n2c(=O)oc3cc(Br)c(Cl)cc32)C(OC(=O)c2ccccc2)C1OC(=O)c1ccccc1)c1ccccc1 (configuration not stated)
[6]
  T/C: 96 % of control
[7]
  T/C: 96 % of control
[8]
  T/C: 89 % of control

## CCN(CC)C(=O)c1ccccc1
[14]
  T/C: 103 % of control
dose: 200.0 mg/kg/injection, schedule: Q04DX003 (ip), vehicle: saline
  T/C: 110 % of control
dose: 400.0 mg/kg/injection, schedule: Q04DX003 (ip), vehicle: saline
  T/C: 105 % of control

## CCOC(=O)C(=O)Nc1onc(C)c1[N+](=O)[O-]
dose: 100.0 mg/kg/injection, schedule: Q01DX001 (ip), vehicle: Klucel (hydroxypropylcellulose) (HPC)
  T/C: 91 % of control
[9]
  T/C: 93 % of control
dose: 200.0 mg/kg/injection, schedule: Q01DX001 (ip), vehicle: Klucel (hydroxypropylcellulose) (HPC)
  T/C: 97 % of control
[11]
  T/C: 93 % of control
dose: 400.0 mg/kg/injection, schedule: Q01DX001 (ip), vehicle: Klucel (hydroxypropylcellulose) (HPC)
  T/C: 100 % of control

## CCCCNC(=O)N(CC)C(=NCC)c1ccc(NC(=O)c2ccc(C(=O)Nc3ccc(C(=NCC)N(CC)C(=O)NCCCC)cc3)cc2)cc1
dose: 3.12 mg/kg/injection, schedule: Q01DX015 (ip), vehicle: methylcellulose (MC)
  T/C: 109 % of control
dose: 6.25 mg/kg/injection, schedule: Q01DX015 (ip), vehicle: methylcellulose (MC)
  T/C: 121 % of control
dose: 12.5 mg/kg/injection, schedule: Q01DX015 (ip), vehicle: methylcellulose (MC)
  T/C: 178 % of control
dose: 25.0 mg/kg/injection, schedule: Q01DX015 (ip), vehicle: methylcellulose (MC)
  T/C: 120 % of control

## COc1c(O)ccc2c1-c1c3c(cc4c1C(C2)NCC4)OCO3 (configuration not stated)
[2]
  T/C: 102 % of control

## O=C1NCC(O)CN1
dose: 29.0 mg/kg/injection, schedule: Q01DX Z (ip), vehicle: methylcellulose (MC)
  T/C: 96 % of control
dose: 45.0 mg/kg/injection, schedule: Q01DX Z (ip), vehicle: methylcellulose (MC)
  T/C: 96 % of control
dose: 67.0 mg/kg/injection, schedule: Q01DX Z (ip), vehicle: methylcellulose (MC)
  T/C: 108 % of control
dose: 100.0 mg/kg/injection, schedule: Q01DX Z (ip), vehicle: methylcellulose (MC)
  T/C: 104 % of control

## S=c1[nH]c2cc(Cl)ccc2s1
[12]
  T/C: 93 % of control
[13]
  T/C: 96 % of control
dose: 400.0 mg/kg/injection, schedule: Q04DX002 (ip), vehicle: Klucel (hydroxypropylcellulose) (HPC)
  T/C: 86 % of control

## CCN1CCC(CN2c3ccccc3Sc3ccccc32)C1 (configuration not stated)
dose: 25.0 mg/kg/injection, schedule: Q01DX009 (ip), vehicle: saline
  T/C: 105 % of control
dose: 25.0 mg/kg/injection, schedule: Q04DX003 (ip), vehicle: saline
  T/C: 94 % of control
dose: 50.0 mg/kg/injection, schedule: Q01DX009 (ip), vehicle: saline
  T/C: 110 % of control
dose: 50.0 mg/kg/injection, schedule: Q04DX003 (ip), vehicle: saline
  T/C: 102 % of control
[2]
  T/C: 98 % of control
[14]
  T/C: 112 % of control

## CCCCCCCCCCCCCCCCCOC(=O)CCCCCCCCCCCCCCCCC
[3]
  T/C: 103 % of control
dose: 200.0 mg/kg/injection, schedule: Q04DX003 (ip), vehicle: saline with Tween-80
  T/C: 92 % of control
dose: 400.0 mg/kg/injection, schedule: Q04DX003 (ip), vehicle: saline with Tween-80
  T/C: 89 % of control

## CC1(c2ccc[n+](CC(=O)c3ccccc3)c2)OCCO1
dose: 75.0 mg/kg/injection, schedule: Q01DX001 (ip), vehicle: saline
  T/C: 104 % of control
dose: 150.0 mg/kg/injection, schedule: Q01DX001 (ip), vehicle: saline
  T/C: 105 % of control
